# Data taken from ChEMBL document CHEMBL2413072, “Synthesis and in vitro anticancer studies of novel C-2 arylidene congeners of lantadenes” (2013).
# Columns and labels:
# Assay type in all cases: functional
# Malme-3M = assay: Growth inhibition of human MALME-3M cells assessed as cell growth at 10 uM by sulforhodamine B assay; settings: read-out: Activity
# SF-268 = assay: Growth inhibition of human SF268 cells assessed as growth inhibition at 10 uM by sulforhodamine B assay; settings: read-out: GI
# IGROV-1 [1] = assay: Growth inhibition of human IGROV1 cells assessed as cell growth at 10 uM by sulforhodamine B assay; settings: read-out: Activity
# SN12C = assay: Growth inhibition of human SN12C cells assessed as growth inhibition at 10 uM by sulforhodamine B assay; settings: read-out: GI
# COLO 205 = assay: Growth inhibition of human COLO205 cells assessed as cell growth at 10 uM by sulforhodamine B assay; settings: read-out: Activity
# CAKI-1 = assay: Growth inhibition of human CAKI-1 cells assessed as growth inhibition at 10 uM by sulforhodamine B assay; settings: read-out: GI
# HOP-92 [2] = assay: Growth inhibition of human HOP92 cells assessed as growth inhibition at 10 uM by sulforhodamine B assay; settings: read-out: GI
# M14 [3] = assay: Growth inhibition of human M14 cells assessed as cell growth at 10 uM by sulforhodamine B assay; settings: read-out: Activity
# NCI-H226 [4] = assay: Growth inhibition of human NCI-H226 cells assessed as cell growth at 10 uM by sulforhodamine B assay; settings: read-out: Activity
# HL-60(TB) = assay: Growth inhibition of human HL-60(TB) cells assessed as cell growth at 10 uM by sulforhodamine B assay; settings: read-out: Activity
# NCI-H460 = assay: Growth inhibition of human NCI-H460 cells assessed as growth inhibition at 10 uM by sulforhodamine B assay; settings: read-out: GI
# MDA-MB-231 = assay: Growth inhibition of human MDA-MB-231 cells assessed as cell growth at 10 uM by sulforhodamine B assay; settings: read-out: Activity
# [5] = Growth inhibition of human EKVX cells assessed as growth inhibition at 10 uM by sulforhodamine B assay; settings: read-out: GI
# SW-620 [6] = assay: Growth inhibition of human SW620 cells assessed as cell growth at 10 uM by sulforhodamine B assay; settings: read-out: Activity
# M14 [7] = assay: Growth inhibition of human M14 cells assessed as growth inhibition at 10 uM by sulforhodamine B assay; settings: read-out: GI
# UACC-257 = assay: Growth inhibition of human UACC257 cells assessed as growth inhibition at 10 uM by sulforhodamine B assay; settings: read-out: GI
# SK-OV-3 [8] = assay: Growth inhibition of human SKOV3 cells assessed as cell growth at 10 uM by sulforhodamine B assay; settings: read-out: Activity
# SK-MEL-5 = assay: Growth inhibition of human SK-MEL-5 cells assessed as cell growth at 10 uM by sulforhodamine B assay; settings: read-out: Activity
# MDA-MB-435 [9] = assay: Growth inhibition of human MDA-MB-435 cells assessed as growth inhibition at 10 uM by sulforhodamine B assay; settings: read-out: GI
# SK-OV-3 [10] = assay: Growth inhibition of human SKOV3 cells assessed as growth inhibition at 10 uM by sulforhodamine B assay; settings: read-out: GI
# A498 = assay: Growth inhibition of human A498 cells assessed as growth inhibition at 10 uM by sulforhodamine B assay; settings: read-out: GI
# RPMI-8226 = assay: Growth inhibition of human RPMI8226 cells assessed as cell growth at 10 uM by sulforhodamine B assay; settings: read-out: Activity
# MOLT-4 [11] = assay: Growth inhibition of human MOLT4 cells assessed as cell growth at 10 uM by sulforhodamine B assay; settings: read-out: Activity
# SW-620 [12] = assay: Growth inhibition of human SW620 cells assessed as growth inhibition at 10 uM by sulforhodamine B assay; settings: read-out: GI
# U-251 = assay: Growth inhibition of human U251 cells assessed as cell growth at 10 uM by sulforhodamine B assay; settings: read-out: Activity
# HOP-92 [13] = assay: Growth inhibition of human HOP92 cells assessed as cell growth at 10 uM by sulforhodamine B assay; settings: read-out: Activity
# HCT-15 = assay: Growth inhibition of human HCT15 cells assessed as cell growth at 10 uM by sulforhodamine B assay; settings: read-out: Activity
# HOP-62 = assay: Growth inhibition of human HOP62 cells assessed as growth inhibition at 10 uM by sulforhodamine B assay; settings: read-out: GI
# SK-MEL-28 [14] = assay: Growth inhibition of human SK-MEL-28 cells assessed as cell growth at 10 uM by sulforhodamine B assay; settings: read-out: Activity
# 786-0 = assay: Growth inhibition of human 786-0 cells assessed as growth inhibition at 10 uM by sulforhodamine B assay; settings: read-out: GI
# SNB-19 = assay: Growth inhibition of human SNB19 cells assessed as cell growth at 10 uM by sulforhodamine B assay; settings: read-out: Activity
# MCF7 = assay: Growth inhibition of human MCF7 cells assessed as growth inhibition at 10 uM by sulforhodamine B assay; settings: read-out: GI
# DU-145 = assay: Growth inhibition of human DU145 cells assessed as growth inhibition at 10 uM by sulforhodamine B assay; settings: read-out: GI
# BT-549 = assay: Growth inhibition of human BT549 cells assessed as cell growth at 10 uM by sulforhodamine B assay; settings: read-out: Activity
# SK-MEL-2 = assay: Growth inhibition of human SK-MEL-2 cells assessed as cell growth at 10 uM by sulforhodamine B assay; settings: read-out: Activity
# IGROV-1 [15] = assay: Growth inhibition of human IGROV1 cells assessed as growth inhibition at 10 uM by sulforhodamine B assay; settings: read-out: GI
# KM12 [16] = assay: Growth inhibition of human KM12 cells assessed as cell growth at 10 uM by sulforhodamine B assay; settings: read-out: Activity
# SK-MEL-28 [17] = assay: Growth inhibition of human SK-MEL-28 cells assessed as growth inhibition at 10 uM by sulforhodamine B assay; settings: read-out: GI
# NCI-H322M = assay: Growth inhibition of human NCI-H322M cells assessed as growth inhibition at 10 uM by sulforhodamine B assay; settings: read-out: GI
# TK-10 = assay: Growth inhibition of human TK10 cells assessed as growth inhibition at 10 uM by sulforhodamine B assay; settings: read-out: GI
# SF-539 = assay: Growth inhibition of human SF539 cells assessed as growth inhibition at 10 uM by sulforhodamine B assay; settings: read-out: GI
# ACHN = assay: Growth inhibition of human ACHN cells assessed as cell growth at 10 uM by sulforhodamine B assay; settings: read-out: Activity
# KM12 [18] = assay: Growth inhibition of human KM12 cells assessed as growth inhibition at 10 uM by sulforhodamine B assay; settings: read-out: GI
# MDA-MB-435 [19] = assay: Growth inhibition of human MDA-MB-435 cells assessed as cell growth at 10 uM by sulforhodamine B assay; settings: read-out: Activity
# T47D = assay: Growth inhibition of human T47D cells assessed as cell growth at 10 uM by sulforhodamine B assay; settings: read-out: Activity
# OVCAR-5 = assay: Growth inhibition of human OVCAR5 cells assessed as cell growth at 10 uM by sulforhodamine B assay; settings: read-out: Activity
# UO-31 = assay: Growth inhibition of human UO31 cells assessed as growth inhibition at 10 uM by sulforhodamine B assay; settings: read-out: GI
# NCI-H226 [20] = assay: Growth inhibition of human NCI-H226 cells assessed as growth inhibition at 10 uM by sulforhodamine B assay; settings: read-out: GI
# MOLT-4 [21] = assay: Growth inhibition of human MOLT4 cells assessed as growth inhibition at 10 uM by sulforhodamine B assay; settings: read-out: GI
compound,measurement,setting,value
CC(C)=CC(=O)O[C@@H]1CC(C)(C)C[C@H]2C3=CC[C@@H]4[C@@]5(C)CC[C@H](O)C(C)(C)[C@@H]5CC[C@@]4(C)[C@]3(C)CC[C@@]12C(=O)O [Reduced Lantadene B],growth at 10 µM,Malme-3M,96.7%
same,inhibition of growth at 10 µM,SF-268,< 10%
same,growth at 10 µM,IGROV-1 [1],78.3%
same,inhibition of growth at 10 µM,SN12C,49.1%
same,growth at 10 µM,COLO 205,68.1%
same,inhibition of growth at 10 µM,CAKI-1,64.4%
same,inhibition of growth at 10 µM,HOP-92 [2],57%
same,growth at 10 µM,M14 [3],94%
same,growth at 10 µM,NCI-H226 [4],78.7%
same,growth at 10 µM,HL-60(TB),14%
same,inhibition of growth at 10 µM,NCI-H460,49.7%
same,growth at 10 µM,MDA-MB-231,81.3%
same,inhibition of growth at 10 µM,[5],52.3%
same,growth at 10 µM,SW-620 [6],66.9%
same,inhibition of growth at 10 µM,M14 [7],< 10%
same,inhibition of growth at 10 µM,UACC-257,< 10%
same,growth at 10 µM,SK-OV-3 [8],89.4%
same,growth at 10 µM,SK-MEL-5,61.5%
same,inhibition of growth at 10 µM,MDA-MB-435 [9],< 10%
same,inhibition of growth at 10 µM,SK-OV-3 [10],10.6%
same,inhibition of growth at 10 µM,A498,< 10%
same,growth at 10 µM,RPMI-8226,23.7%
same,growth at 10 µM,MOLT-4 [11],49.6%
same,inhibition of growth at 10 µM,SW-620 [12],33.1%
same,growth at 10 µM,U-251,39.2%
same,growth at 10 µM,HOP-92 [13],43%
same,growth at 10 µM,HCT-15,25.1%
same,inhibition of growth at 10 µM,HOP-62,46.3%
same,growth at 10 µM,SK-MEL-28 [14],88.3%
same,inhibition of growth at 10 µM,786-0,38.2%
same,growth at 10 µM,SNB-19,85.6%
same,inhibition of growth at 10 µM,MCF7,37.3%
same,inhibition of growth at 10 µM,DU-145,13.4%
same,growth at 10 µM,BT-549,78.1%
same,growth at 10 µM,SK-MEL-2,86.5%
same,inhibition of growth at 10 µM,IGROV-1 [15],21.7%
same,growth at 10 µM,KM12 [16],34.3%
same,inhibition of growth at 10 µM,SK-MEL-28 [17],11.7%
same,inhibition of growth at 10 µM,NCI-H322M,40.3%
same,inhibition of growth at 10 µM,TK-10,20.1%
same,inhibition of growth at 10 µM,SF-539,45.3%
same,growth at 10 µM,ACHN,46.3%
same,inhibition of growth at 10 µM,KM12 [18],65.7%
same,growth at 10 µM,MDA-MB-435 [19],95.3%
same,growth at 10 µM,T47D,86.7%
same,growth at 10 µM,OVCAR-5,119%
same,inhibition of growth at 10 µM,UO-31,39.1%
same,inhibition of growth at 10 µM,NCI-H226 [20],21.3%
same,inhibition of growth at 10 µM,MOLT-4 [21],50.4%
